From PubChem BioAssay (NCI)
Values joined by “and” are separate entries in the source; they are usually repeats but may differ in a detail not shown here. Identical values can stand only once.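 All cell lines were grown in 96-well plates and treated with compound for 48 hours. The concentration for 50% growth inhibition is given as GI50. TGI marks complete inhibition of growth.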

What was measured:
Assay in all cases: NCI-60 cell line screen, 48 h
HCC-2998 colon = system: HCC-2998 colon
NCI-H226 lung = system: NCI-H226 lung
MALME-3M melanoma = system: MALME-3M melanoma
A549 NSCLC = system: A549 NSCLC
HL-60(TB) leukemia = system: HL-60(TB) leukemia
K-562 leukemia = system: K-562 leukemia
MOLT-4 leukemia = system: MOLT-4 leukemia
HS 578T breast = system: HS 578T breast
SR leukemia = system: SR leukemia
SF-268 CNS = system: SF-268 CNS

Compound	GI50 (HCC-2998 colon)	TGI (HCC-2998 colon)	GI50 (NCI-H226 lung)	TGI (NCI-H226 lung)	GI50 (MALME-3M melanoma)	TGI (MALME-3M melanoma)	GI50 (A549 NSCLC)	TGI (A549 NSCLC)	GI50 (HL-60(TB) leukemia)	TGI (HL-60(TB) leukemia)	GI50 (K-562 leukemia)	TGI (K-562 leukemia)	GI50 (MOLT-4 leukemia)	TGI (MOLT-4 leukemia)	GI50 (HS 578T breast)	TGI (HS 578T breast)	GI50 (SR leukemia)	TGI (SR leukemia)	GI50 (SF-268 CNS)	TGI (SF-268 CNS)
C[C@]12CC[C@@H]3c4ccc(O)cc4CC[C@H]3[C@@H]1CC[C@@H]2NS(=O)(=O)c1ccc(-c2ccccc2)cc1	4.39 µM	> 100 µM	3.13 µM	19.4 µM	3.01 µM	12.6 µM	3.26 µM	> 100 µM	6.26 µM	47.6 µM	3.48 µM	> 100 µM	3.47 µM	> 100 µM	7.37 µM	> 100 µM	4.1 µM	66.4 µM	3.93 µM	> 100 µM
CC(C)(C)NCCC(O)c1cc(C(F)(F)F)nc2c(C(F)(F)F)cccc12 (stereo not given)		8.73 µM		33.4 µM		27.2 µM		13.5 µM		27.5 µM		19.9 µM		18.6 µM		34.4 µM		13.5 µM		24.2 µM
CC1(C)CC2(C)OC2C2(C1)N=NC(=Nc1ccccc1)O2 (stereo not given)	13.2 µM	26.6 µM	10.7 µM	29.6 µM	3.07 µM	12.1 µM	11 µM	39.5 µM	5.26 µM	26.1 µM	2.3 µM	12.5 µM	2.63 µM	9.96 µM	17.3 µM	71.7 µM	2.56 µM	8.68 µM	4.9 µM	19.1 µM
CC(C)C[C@H](NC(=O)[C@@H](O)[C@H](N)Cc1ccccc1)C(=O)O		> 100 µM		> 100 µM		> 100 µM		> 100 µM		> 100 µM		> 100 µM		> 100 µM		> 100 µM		> 100 µM		> 100 µM
CCNC(=O)Oc1ccc(/C(=C(\C)c2ccc(Cl)cc2)c2ccc(OCCN3CCCCC3)cc2)cc1	3.53 µM	13.4 µM	14.4 µM	36.7 µM	1.78 µM	3.9 µM	8.47 µM	22.4 µM	1.99 µM	4.47 µM	2.34 µM	5.96 µM	3.27 µM	10.6 µM	3.62 µM	17.2 µM	2.98 µM	9.23 µM	6.04 µM	20.9 µM
CN(C)c1ccc(Sc2ccc3nc(N)nc(N)c3c2)cc1	0.848 µM	4.84 µM	4.21 µM	18.6 µM	1.09 µM	2.87 µM	0.139 µM	12 µM	0.444 µM	2.2 µM	0.142 µM	4.55 µM	0.635 µM	16 µM	4.72 µM	27.4 µM	0.629 µM	6.71 µM	0.604 µM	14.3 µM
C[C@H](NC(=O)CCC(F)(F)F)C(=O)N[C@@H]1C(=O)N(CCO)c2ncccc2-c2ccccc21	> 100 µM	> 100 µM	> 100 µM	> 100 µM	> 100 µM	> 100 µM	> 100 µM	> 100 µM	> 100 µM	> 100 µM	> 100 µM	> 100 µM	> 100 µM	> 100 µM	> 100 µM	> 100 µM	> 100 µM	> 100 µM	> 100 µM	> 100 µM
CC(=O)N[C@@H]1CCC[C@H](C(=O)Nc2cc(-c3cnn4c3CC(C)(C)C4)c(Cl)cn2)C1	< 0.0149 µM	0.237 µM	< 0.01 µM	38.7 µM	0.0216 µM	0.075 µM	< 0.0108 µM	> 100 µM	< 0.01 µM	< 0.017 µM	0.0212 µM	> 100 µM	< 0.0117 µM	0.13 µM	< 0.01 µM	20.1 µM	< 0.01 µM	1.21 µM	< 0.01 µM	0.431 µM
O=C(NO)C(O)C(O)C(O)C(O)CO (stereo not given)	> 100 µM	> 100 µM	> 71.5 µM and 50.4 µM	> 100 µM	> 100 µM	> 100 µM	> 100 µM and 54.1 µM	> 100 µM	> 21.5 µM	> 21.5 µM	> 87.6 µM and 47.1 µM	> 100 µM	> 100 µM	> 100 µM	> 100 µM	> 100 µM	75.9 µM	> 100 µM	> 100 µM	> 100 µM
CC(C)(C)c1ccc(S(=O)(=O)N[C@H]2CC[C@H]3[C@@H]4CCc5cc(O)ccc5[C@H]4CC[C@]23C)cc1	2.8 µM	7.1 µM	1.75 µM	3.51 µM	2.78 µM	7.13 µM	2.14 µM	7.24 µM	2.31 µM	6.11 µM	2.46 µM	8.64 µM	2.46 µM	9.53 µM	2.39 µM	6.98 µM	2.17 µM	6.04 µM	3.94 µM	14 µM
Cc1csc(Nc2nc(-c3cccc(Cl)c3)nc(C(Cl)(Cl)Cl)n2)n1	1.22 µM	4.71 µM	> 33.3 µM	> 33.3 µM	> 33.3 µM	> 33.3 µM	1.06 µM	5.27 µM	0.994 µM	3.81 µM	7.41 µM	> 33.3 µM	14 µM	> 33.3 µM	1.79 µM	13.2 µM	16.8 µM	> 33.3 µM	6.48 µM	> 33.3 µM
CCOC(=O)Cc1csc(NC(=O)C(OC(=O)c2ccc(N)cc2)c2ccccc2)n1 (stereo not given)	60 µM	> 100 µM	60 µM	> 100 µM	44.2 µM	> 100 µM	51.5 µM	> 100 µM	18.4 µM	92.5 µM	31.6 µM	> 100 µM	24.8 µM	> 100 µM	80.9 µM	> 100 µM	21.2 µM	> 100 µM	35.5 µM	> 100 µM
COc1cc(C(=O)N/N=C/c2cccc([N+](=O)[O-])c2)cc(OC)c1OC	7.95 µM	59.5 µM	18 µM	> 100 µM	2.75 µM	9.86 µM	8.02 µM	> 100 µM	0.762 µM	10.2 µM	0.872 µM	> 100 µM	3.98 µM	> 100 µM	2.02 µM	8.6 µM	0.558 µM	> 100 µM	5.57 µM	> 100 µM
CCCCCCCCCCCCNC(=O)[C@H]1CSC(c2ccc(OC)c(F)c2)N1 (stereo not given in full)	1.75 µM	3.33 µM	1.42 µM	3.21 µM	1.78 µM	3.24 µM	1.89 µM	3.69 µM	1.63 µM	3.59 µM	0.215 µM	0.938 µM	0.214 µM	0.469 µM	0.241 µM	0.577 µM	0.324 µM	1.59 µM	0.216 µM	0.455 µM
Cc1nc(C(N)=S)sc1C(=O)CC(=O)C(=O)Nc1cccc(Cl)c1C		> 100 µM		> 100 µM		> 100 µM		> 100 µM		> 100 µM		> 100 µM		> 100 µM		> 100 µM		> 100 µM		> 100 µM
